In patent US20080305175A1, “Micro-Container” (AGENCY FOR SCIENCE, TECHNOLOGY AND RESEARCH, priority 2006, published 2008):
Where a name gives a salt, the structure may show the parent alone.

Key:
[1] = cited from earlier work
[2] = In vivo release test, DOX concentration in blood after subcutaneous administration; design: species or system Male Sprague Dawley rats; conditions: rat, 1 mg DOX in normal saline subcutaneously, ~20 mL blood in a rat
Procedure: Male Sprague Dawley rats (8 weeks, average weight 250 g) were stabilized for 1 week with free access to food and water. Microcontainers loaded with DOX were subcutaneously administered into the rats at a level of 3.7 mg/Kg (10 mg microspheres containing 1 mg DOX were freshly dispersed in 0.5 mL of normal saline solution for each rat). […] The blood samples were separated by centrifugation at 2000 g at 4° C. for 10 min and the obtained plasma samples were then stored at −20° C. prior to analysis. Just before the DOX extraction, the plasma samples were thawed followed by adding 3 ml of 70% ethanol and 30% 0.45 M HCl aqueous solution by volume. The obtained suspensions were mixed for 30 s to form gels. These gels were first stored at 4° C. for 24 hours in dark, and then centrifuged at 10,000 g for 15 min. The supernatants were transferred into glass cuvettes and allowed to warm to room temperature for the determination of DOX concentration by a fluorescence spectrophotometer.

SMILES | solubility in water ([1]; water) [µg/mL] | DOX concentration level that can be reached in blood [2] [µg/mL] | stability versus pH ([1]; pH of more than 6.5)
COc1cccc2c1C(=O)c1c(O)c3c(c(O)c1C2=O)C[C@@](O)(C(=O)CO)C[C@@H]3O[C@H]1C[C@H](N)[C@H](O)[C@H](C)O1 [DOX, Doxorubicin hydrochloride] | 10000 | 50 | 
COc1cccc2c1C(=O)c1c(O)c3c(c(O)c1C2=O)C[C@@](O)(C(=O)CO)C[C@@H]3O[C@H]1C[C@H](N)[C@H](O)[C@H](C)O1 [Doxorubicin, doxorubicin] |  |  | unstable
